Measured values from BindingDB's records for doi:10.1021/jm300752n (Emory University, 2012).

Assay: Inhibition of P300 CH1 domain-mediated HIF1 transcriptional activity in human LN229-V6R cells assessed as reduction in luciferase activity incubated for 1 hr under normoxia followed by 24 hrs under hypoxia by reporter gene assay

SMILES	IC50 [µM]
CC(C)CN(Cc1ccc2c(c1)C=CC(C)(C)O2)S(=O)(=O)c1nccs1	5
CC(C)CN(Cc1ccc2c(c1)C=CC(C)(C)O2)S(=O)(=O)c1nccn1C	5
COc1cc(CN(C(C)C)S(=O)(=O)c2ccccn2)cc2c1OC(C)(C)C=C2	5
CC(C)CN(Cc1ccc2c(c1)C=CC(C)(C)O2)S(=O)(=O)c1ccccn1	5
